Drawing on ChEMBL document CHEMBL4813957, “Antitubercular properties of thiazolidin-4-ones - A review” (Eur J Med Chem, 2021), this text covers MIC for 29 molecules.

Converted amounts (≈) assume the structure as drawn.

What is called MIC is the least concentration at which growth counts as inhibited.

In the first test the test system is Mycobacterium tuberculosis. The test can be described thus: Antimycobacterial activity against Mycobacterium tuberculosis H37Rv by filter paper disc diffusion method. Format: functional.
Conditions: not given
On the technique in general: A growth-free zone around the sample is the usual read-out of agar diffusion tests.
`O=C1CSC(c2ccc(Cl)cc2)N1C(=O)NCCCn1ncc2ccc([N+](=O)[O-])cc21` (centres undefined) showed an MIC of 4.75 µg/mL (≈ 10.3 µM).

As to `O=C1CSC(c2cccc(Br)c2)N1C(=O)NCCCn1ncc2ccc([N+](=O)[O-])cc21` (centres undefined), the MIC stood at 4.5 µg/mL (≈ 8.92 µM). Same read-out and setting: the figure for `O=C(NCCCn1ncc2ccc([N+](=O)[O-])cc21)N1C(=O)/C(=C/c2ccc(Cl)cc2)SC1c1ccc(Cl)cc1` (centres undefined) is 3.25 µg/mL (≈ 5.58 µM); for `O=C1CSC(c2ccccc2[N+](=O)[O-])N1C(=O)NCCCn1ncc2ccc([N+](=O)[O-])cc21` (centres undefined) it is 3.75 µg/mL (≈ 7.97 µM); for `O=C(NCCCn1ncc2ccc([N+](=O)[O-])cc21)N1C(=O)/C(=C/c2ccccc2[N+](=O)[O-])SC1c1ccccc1[N+](=O)[O-]` (centres undefined) it is 2.25 µg/mL (≈ 3.73 µM). As for `O=C(NCCCn1ncc2ccc([N+](=O)[O-])cc21)N1C(=O)/C(=C/c2ccccc2)SC1c1ccccc1` (centres undefined), 6.25 µg/mL (≈ 12.2 µM) was the least that counted as inhibitory (MIC). Regarding `O=C1CSC(c2ccccc2)N1C(=O)NCCCn1ncc2ccc([N+](=O)[O-])cc21` (centres undefined), 7.5 µg/mL (≈ 17.6 µM) was the least that counted as inhibitory (MIC). `O=C(NCCCn1ncc2ccc([N+](=O)[O-])cc21)N1C(=O)/C(=C/c2cccc([N+](=O)[O-])c2)SC1c1cccc([N+](=O)[O-])c1` (centres undefined) registered a minimum inhibitory concentration (MIC) of 1.75 µg/mL (≈ 2.9 µM). The molecule `O=C(NCCCn1ncc2ccc([N+](=O)[O-])cc21)N1C(=O)/C(=C/c2ccccc2Cl)SC1c1ccccc1Cl` (centres undefined) returned an MIC of 2.25 µg/mL (≈ 3.86 µM). In turn, `O=C1CSC(c2ccc([N+](=O)[O-])cc2)N1C(=O)NCCCn1ncc2ccc([N+](=O)[O-])cc21` (centres undefined) registered an MIC of 4.25 µg/mL (≈ 9.03 µM). The molecule `O=C1CSC(c2ccccc2Cl)N1C(=O)NCCCn1ncc2ccc([N+](=O)[O-])cc21` (centres undefined) returned an MIC of 4.25 µg/mL (≈ 9.24 µM).

`O=C1CSC(c2cccc([N+](=O)[O-])c2)N1C(=O)NCCCn1ncc2ccc([N+](=O)[O-])cc21` (centres undefined): the minimum inhibitory concentration (MIC) worked out at 4.25 µg/mL (≈ 9.03 µM). `O=C(NCCCn1ncc2ccc([N+](=O)[O-])cc21)N1C(=O)/C(=C/c2cccc(Cl)c2)SC1c1cccc(Cl)c1` (centres undefined): the minimal inhibitory concentration (MIC) came to 1.5 µg/mL (≈ 2.58 µM). The molecule `O=C1CSC(c2cccc(Cl)c2)N1C(=O)NCCCn1ncc2ccc([N+](=O)[O-])cc21` (centres undefined) registered a minimal inhibitory concentration (MIC) of 4.5 µg/mL (≈ 9.78 µM). Regarding `O=C1CSC(c2ccccc2Br)N1C(=O)NCCCn1ncc2ccc([N+](=O)[O-])cc21` (centres undefined), it took 4.75 µg/mL (≈ 9.42 µM) to inhibit growth (MIC). Same read-out and setting: the figure for `O=C(NCCCn1ncc2ccc([N+](=O)[O-])cc21)N1C(=O)/C(=C/c2ccc([N+](=O)[O-])cc2)SC1c1ccc([N+](=O)[O-])cc1` (centres undefined) is 1.5 µg/mL (≈ 2.49 µM). The same measure, in the same setting: the figure for `O=C(NCCCn1ncc2ccc([N+](=O)[O-])cc21)N1C(=O)/C(=C/c2ccc(Br)cc2)SC1c1ccc(Br)cc1` (centres undefined) is 2.5 µg/mL (≈ 3.72 µM). In the case of `O=C(NCCCn1ncc2ccc([N+](=O)[O-])cc21)N1C(=O)/C(=C/c2cccc(Br)c2)SC1c1cccc(Br)c1` (centres undefined), the MIC is 1.25 µg/mL (≈ 1.86 µM). In turn, `O=C(NCCCn1ncc2ccc([N+](=O)[O-])cc21)N1C(=O)/C(=C/c2ccccc2Br)SC1c1ccccc1Br` (centres undefined) had a minimum inhibitory concentration (MIC) of 4.25 µg/mL (≈ 6.33 µM).

Molecule `O=C1CSC(c2ccc(Br)cc2)N1C(=O)NCCCn1ncc2ccc([N+](=O)[O-])cc21` (centres undefined) yielded an MIC of 5.25 µg/mL (≈ 10.4 µM).

Another test relates to Mycobacterium tuberculosis. Briefly: Antimycobacterial activity against Mycobacterium tuberculosis H37Rv ATCC27294 measured after 28 days by two-fold serial dilution method. The class given is functional. As to conditions: H37Rv ATCC 27294, 672 h, time 28 day.
`N=C1S/C(=C\c2ccc(OCc3ccccc3)cc2)C(=O)N1c1ncc([N+](=O)[O-])s1` returned a minimum inhibitory concentration (MIC) of 6.4 µM (≈ 2.81 µg/mL).

With `N=C1S/C(=C\c2ccccc2F)C(=O)N1c1ncc([N+](=O)[O-])s1`, the lowest concentration to inhibit growth (MIC) was 3.9 µM (≈ 1.37 µg/mL). Consider `COc1cc(/C=C2\SC(=N)N(c3ncc([N+](=O)[O-])s3)C2=O)cc(OC)c1OC`, for which the minimum inhibitory concentration (MIC) stood at 3.31 µM (≈ 1.4 µg/mL). In the case of `N=C1S/C(=C\c2cc([N+](=O)[O-])co2)C(=O)N1c1ncc([N+](=O)[O-])s1`, the MIC is 7.49 µM (≈ 2.75 µg/mL).

Molecule `COc1cc(/C=C2\SC(=N)N(c3nc4ccc([N+](=O)[O-])cc4s3)C2=O)cc(OC)c1OC` had a minimum inhibitory concentration (MIC) of 7.4 µM (≈ 3.5 µg/mL). `N=C1S/C(=C\c2cc([N+](=O)[O-])co2)C(=O)N1c1nc2ccc([N+](=O)[O-])cc2s1`: 6.81 µM (≈ 2.84 µg/mL) was the least that counted as inhibitory (MIC). Take `N=C1S/C(=C\c2ccccc2F)C(=O)N1c1nc2ccc([N+](=O)[O-])cc2s1`: the minimal inhibitory concentration (MIC) was 4.26 µM (≈ 1.71 µg/mL).

Consider `N=C1S/C(=C\c2cc([N+](=O)[O-])cs2)C(=O)N1c1nc2ccc([N+](=O)[O-])cc2s1`, for which the MIC was 6.52 µM (≈ 2.83 µg/mL). For `N=C1S/C(=C\c2cc([N+](=O)[O-])cs2)C(=O)N1c1ncc([N+](=O)[O-])s1`, the minimum inhibitory concentration (MIC) turned out to be 7.21 µM (≈ 2.76 µg/mL).
